# Measurements as given in patent US20180289692A1, “TLR MODULATORS AND METHODS OF USE” (CELGENE CORPORATION, priority 2015, published 2018).
# Oligonucleotides are written 5' to 3', each unit as a sugar letter and its base; * is a phosphorothioate linkage, no mark a phosphodiester; rarer units and linkages stand in square brackets, end groups in braces. Plain capitals give the bases only. d = 2'-deoxy (DNA)
# Experiments:
# Format in all cases: cell-based
# [1] = system: canonical NF-κB promoter reporter; assay: Mouse Raw Blue Reporter Cells, SEAP reporter driven by canonical NF-κB promoter (FIG. 11); details: mouse macrophages, 24 hrs
# Method: Mouse Raw Blue Reporter Cells (Invivogen), containing a secreted embryonic alkaline phosphatase (SEAP) reporter gene driven by canonical NF-κB promoter, were plated in 96-well plates at 50,000 cells/well in DMEM Media supplemented with 10% FBS, 2 mM L-glutamine, 1% Pen/Strep, […] Normacin. […] The supernatant was harvested and tested for SEAP production by measuring OD at 630 nm.
# [2] = system: human pDCs; assay: Surface ICOS-L and PD-L1 expression in CCR6+CD123+ human pDCs by FACS; details: human pDCs, 24 hrs, FIG. 2B
# Method: To evaluate surface ICOS-L, PD-L1 expression in the CCR6+CD123+ pDC cell subsets, PBMCs were incubated on ice in the presence of Fc-Block (BD Pharmingen) for 20 minutes, washed, and incubated with antibodies specific for surface molecules or isotype-matched control mAbs. APC-labeled anti-human ICOS-L mAb were purchased from BioLegend, PECY-7-labeled anti-human CCR6 mAb, FITC-labeled anti-human PD-L1 mAb and PerCP-Cy5.5 labeled anti-human CD123 mAb were purchased from BD Biosciences. The stained cells were then subjected to FACS (FACSCanto, BD Biosciences) using FACSDiva software. FACS analysis was performed using FlowJo software. Single, viable cells in the CCR6+CD123+ pDC gates were analyzed. The flow cytometric results are expressed as the percentage and MFI of ICOSL-, or PD-L1-expressing cells in each gate.
# pDCs were isolated and ICOS-L expression was analyzed as described in Example 2.
# [3] = system: human purified pDCs; assay: IFN-α secretion from purified human pDCs by ELISA
# Source text: By contrast, ODN2006 induced IFN-α secretion from purified and matured pDCs, and ODN150 and ODN7040 induced IFN-α secretion from matured pDCs.
# [4] = system: purified human pDCs; assay: pDC differentiation, differentiation markers CD86, CD83, CCR6, CCR7 by flow cytometry; design: key: (↑) indicates a weak but detectable activity; (↑↑) and (↑↑↑) indicate different levels of moderate activities; (↑↑) and (↑↑↑) indicate different levels of moderate activities; (↑↑↑↑) indicates a strong activity; (−) indicates no detectable activity; details: relative strength, Table 6
substance,measurement,setting,value
"ODN150: 5′-G*G*A*ACAGTTCGTCCAT*G*G*C-3′, PO except * = PS; antisense to p65 of NF-kB mRNA; tested clinically for ulcerative colitis (DNA dG*dG*dA*dAdCdAdGdTdTdCdGdTdCdCdAdT*dG*dG*dC)",concentration from which the NF-κB reporter is activated,[1],10 µM
same,activation of canonical NF-κB reporter,"[1]; SEAP, COMPOUND (I) up to 10 μM",activate
same,PD-L1 protein induction,[2],can induce
same,IFN-α secretion from pDCs matured by IL-3 treatment,"[3]; 3 μM, 48 hours, ELISA, FIG. 18",induced
same,IFN-α,"[3]; pDC, relative strength, Table 6",↑ ↑
same,pDC differentiation,[4],↑
